The results in this text go back to patent US20050032861A1, “Oxazolidines containing a sulfonimid group as antibiotics” (priority 2001, published 2005).

Values after ≈ are worked out from the molar mass of the structure shown.

Common to all, as to assay type: cell-based
For one assay, the system named is Moraxella catarrhalis. Kind of assay: MIC, broth-dilution, fastidious Gram negative organisms. The conditions noted are these: hemin and NAD, 24 h at 37° C. How it is done: (§1) The following results were obtained on a standard in-vitro test system. The activity is described in terms of the minimum inhibitory concentration (MIC) determined by the broth-dilution technique with an inoculum size of 5×10^4 CFU/spot. Typically, compounds are active in the range 0.01 to 256 μg/ml. Fastidious Gram negative organisms were tested in Mueller-Hinton broth supplemented with hemin and NAD, grown aerobically for 24 h at 37° C., and with an innoculum of 5×10^4 CFU/well.

A further assay relates to Haemophilus influenzae. Described as above. The conditions noted are these: hemin and NAD, 24 h at 37° C. How it is done: as §1
A further assay concerns Streptococcus pyogenes. Kind of assay: MIC, broth-dilution, Streptococci in Mueller-Hinton broth with horse blood. The conditions noted are these: 37° C. aerobically, 24 hours. How it is done:
(§2) The following results were obtained on a standard in-vitro test system. The activity is described in terms of the minimum inhibitory concentration (MIC) determined by the broth-dilution technique with an inoculum size of 5×10^4 CFU/spot. Typically, compounds are active in the range 0.01 to 256 μg/ml. Streptococci were tested in Mueller-Hinton broth supplemented with 2.5% clarified lake horse blood with an innoculum of 10^4 CFU/well and an incubation temperature of 37° C. aerobically for 24 hours.

Another assay has as its system Streptococcus pneumoniae. The description is as above. The conditions noted are these: 37° C. aerobically, 24 hours. How it is done:
as §2

In assay [1] the test system is Staphylococcus aureus MRQR. Kind of assay: MIC, broth-dilution, Staphylococci in broth. As to conditions: Staphylococcus aureus MRQR (methicillin resistant and quinolone resistant); 37° C., 16-24 hours. How it is done: (§3) The following results were obtained on a standard in-vitro test system. The activity is described in terms of the minimum inhibitory concentration (MIC) determined by the broth-dilution technique with an inoculum size of 5×10^4 CFU/spot. Typically, compounds are active in the range 0.01 to 256 μg/ml.
(§4) Staphylococci were tested in broth using an inoculum of 5×10^4 CFU/spot and an incubation temperature of 37° C. for 16-24 hours.
(§5) • MSQS=methicillin sensitive and quinolone sensitive • MRQR=methincillin resistant and quinolone resistant

The subject of assay [2] is Staphylococcus aureus MSQS. Put plainly: MIC, broth-dilution, Staphylococci in broth. As to conditions: Staphylococcus aureus MSQS (methicillin sensitive and quinolone sensitive); 37° C., 16-24 hours. How it is done: as §3, §4, §5

On to `N=S1(=O)CC=C(c2c(F)cc(N3C[C@H](Cn4ccnn4)OC3=O)cc2F)CC1` (stereo partly drawn) [Example 2, (5R)-3-[3,5-Difluoro-4-(1RS-1-imino-1-oxo-3,6-dihydrothiopyran-4-yl)-phenyl]-5-(1H-1,2,3-triazol-1-ylmethyl)-2-oxazolidinone], for which the MIC in the assay on Moraxella catarrhalis was 8 µg/mL (≈ 19.5 µM); in the assay with Haemophilus influenzae, 8 µg/mL (≈ 19.5 µM); with Streptococcus pyogenes it was 2 µg/mL (≈ 4.88 µM); in the assay on Streptococcus pneumoniae, 2 µg/mL (≈ 4.88 µM); in assay [1], 8 µg/mL (≈ 19.5 µM); in assay [2] it was 1 µg/mL (≈ 2.44 µM).
